One may read the solubility as the concentration that dissolves in the medium under given conditions. A word on the IC50: it is the point on the concentration scale where inhibition reaches its midpoint.

≈ marks a conversion by molar mass, not a printed value.

A short description of data set [1]: Aqueous solubility in PBS, pH 7.4. It is filed as physicochemical. The note with it: phosphate buffered saline, pH 7.4, aqueous buffer, thermodynamic from solid, pH 7.4 phosphate buffered saline, 24 hours, amorphous or crystalline material; read-out: Aqu. Solubility. Summed up: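 Excess solid suspended at 0.5 mg/mL in PBS pH 7.4 and stirred 24 hours. Filtrate (0.45 μm) diluted 1:1 with ACN:H2O and quantified by UPLC against a standard curve; residual solid phase checked by XRPD and PLM.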

Data set [2] has as its system HIV-1 wild-type (R8) virus. The data set can be described thus: Viral KINetics in Green cells (VIKING) assay, HIV-1 replication in MT4-GFP reporter cells. Type of data set: cell-based. The note with it: Human immunodeficiency virus 1, 10% normal human serum, MT4-GFP cells, HIV-1 wild-type (R8); read-out: Viking (10% NHS), IC50. Summed up: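 Compounds in 3-fold, 10-point series (typical 4 μM-0.2 nM) in 10% normal human serum received MT4 GFP-reporter T cells pre-infected overnight with wild-type R8 virus (MOI ~0.01). Ratio of GFP-positive cells at 72 vs 48 h defined replication; IC50 from nonlinear 4-parameter dose-response fitting.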

Data set [3] is described as follows: Plasma stability in frozen human plasma. Type of data set: in vitro ADME. As to conditions: frozen human plasma at 37° C., 0-3 hr; read-out: T1/2 Human Plasma (converted). As to the method:
Plasma stability of the compounds was evaluated in frozen human plasma at 37° C. in a 10% CO2 environment. The stability of the analyte was assessed by determining the percentage of drug loss over the course of 0, 0.25, 0.5, 1, and 3 hr. In addition, the appearance of Compound A was determined for the same time course. Percent of drug loss as based on ratio with internal standard. Analyte concentrations were measured by LC/MS/MS. Linear regression was performed with log transformed percent of average TO values and linear time values. The elimination rate constant (ke) was calculated from the slope of this regression line and the half-life (T½) calculated based on the elimination rate constant.

In the case of `C#C[C@]1(COC(=O)C(C)C)O[C@@H](n2ccc3c(N)nc(Cl)nc32)C[C@@H]1OC(=O)C(C)C` [Example 42, (2R,3S,5R)-5-(4-amino-2-chloro-7H-pyrrolo[2,3-d]pyrimidin-7-yl)-2-ethynyl-2-((isobutyryloxy)methyl)tetrahydrofuran-3-yl isobutyrate], the solubility at 24 h in data set [1] was under 1 µg/mL. In data set [2], the IC50 stood at 10.9 nM. Also, the half-life in data set [3] is under 0.25 h.
For `C#C[C@]1(CO)O[C@@H](n2ccc3c(N)nc(Cl)nc32)C[C@@H]1OC(=O)C(CC)CC` [Example 45, (2R,3S,5R)-5-(4-amino-2-chloro-7H-pyrrolo[2,3-d]pyrimidin-7-yl)-2-ethynyl-2-(hydroxymethyl)tetrahydrofuran-3-yl 2-ethylbutanoate], in data set [1], the solubility at 24 h was 45 µg/mL (≈ 111 µM). Besides, the IC50 in data set [2] came out at 143 nM. Besides, the half-life in data set [3] was 19.4 h.
On the same counts, the results for `C#C[C@]1(CO)O[C@@H](n2ccc3c(N)nc(Cl)nc32)C[C@@H]1OC(=O)c1ccccc1` [Example 5, (2R,3S,5R)-5-(4-amino-2-chloro-7H-pyrrolo[2,3-d]pyrimidin-7-yl)-2-ethynyl-2-(hydroxymethyl)tetrahydrofuran-3-yl benzoate] are under 1 µg/mL, 35 nM and 57.7 h.
Take `C#C[C@]1(CO)O[C@@H](n2ccc3c(N)nc(Cl)nc32)C[C@@H]1OC(=O)C(C)C` [Example 2, (2R,3S,5R)-5-(4-amino-2-chloro-7H-pyrrolo[2,3-d]pyrimidin-7-yl)-2-ethynyl-2-(hydroxymethyl)tetrahydrofuran-3-yl isobutyrate]: the solubility at 24 h in data set [1] is 136 µg/mL (≈ 359 µM). Moreover, in data set [2], the concentration for half-maximal inhibition (IC50) amounted to 41 nM. The half-life in data set [3] was 48.4 h.
Consider `C#C[C@]1(COC(=O)C(CC)CC)O[C@@H](n2ccc3c(N)nc(Cl)nc32)C[C@@H]1O` [Example 40, ((2R,3S,5R)-5-(4-amino-2-chloro-7H-pyrrolo[2,3-d]pyrimidin-7-yl)-2-ethynyl-3-hydroxytetrahydrofuran-2-yl)methyl 2-ethylbutanoate], for which, in data set [1], the solubility at 24 h was 282 µg/mL (≈ 693 µM). The IC50 in data set [2] is 5.5 nM. Also, the half-life in data set [3] was 1.9 h.
As to `C#C[C@]1(COC(=O)C(C)C)O[C@@H](n2ccc3c(N)nc(Cl)nc32)C[C@@H]1O` [Example 11, ((2R,3S,5R)-5-(4-amino-2-chloro-7H-pyrrolo[2,3-d]pyrimidin-7-yl)-2-ethynyl-3-hydroxytetrahydrofuran-2-yl)methyl isobutyrate], the solubility at 24 h in data set [1] is 285 µg/mL (≈ 752 µM). The half-inhibitory concentration (IC50) in data set [2] is 1.9 nM. Further, the half-life in data set [3] was 0.042 h.
For `C#C[C@]1(COC(=O)C(CC)CC)O[C@@H](n2ccc3c(N)nc(Cl)nc32)C[C@@H]1OC(=O)C(CC)CC` [Example 44, (2R,3S,5R)-5-(4-amino-2-chloro-7H-pyrrolo[2,3-d]pyrimidin-7-yl)-2-(((2-ethylbutanoyl)oxy)methyl)-2-ethynyltetrahydrofuran-3-yl 2-ethylbutanoate], the solubility at 24 h in data set [1] was under 1 µg/mL. In data set [2], the IC50 worked out at 351 nM. Moreover, in data set [3], the half-life was 2.2 h.
On to `C#C[C@]1(CO)O[C@@H](n2ccc3c(N)nc(Cl)nc32)C[C@@H]1OC(=O)CCCC` [Example 3, (2R,3S,5R)-5-(4-amino-2-chloro-7H-pyrrolo[2,3-d]pyrimidin-7-yl)-2-ethynyl-2-(hydroxymethyl)tetrahydrofuran-3-yl pentanoate], for which the solubility at 24 h in data set [1] stood at 27 µg/mL (≈ 68.7 µM). The IC50 in data set [2] is 3.7 nM. In addition, the half-life in data set [3] is 16.7 h.
Taken in the same sequence, the figures for `C#C[C@]1(CO)O[C@@H](n2ccc3c(N)nc(Cl)nc32)C[C@@H]1OC(=O)Oc1ccccc1` [Example 12, (2R,3S,5R)-5-(4-amino-2-chloro-7H-pyrrolo[2,3-d]pyrimidin-7-yl)-2-ethynyl-2-(hydroxymethyl)tetrahydrofuran-3-yl phenyl carbonate] were 2.9 µg/mL (≈ 6.76 µM), 2.9 nM and 0.41 h.
For the compound `C#C[C@]1(COC(=O)c2ccccc2)O[C@@H](n2ccc3c(N)nc(Cl)nc32)C[C@@H]1OC(=O)c1ccccc1` [Example 6, (2R,3S,5R)-5-(4-amino-2-chloro-7H-pyrrolo[2,3-d]pyrimidin-7-yl)-2-((benzoyloxy)methyl)-2-ethynyltetrahydrofuran-3-yl benzoate], the solubility at 24 h in data set [1] is under 1 µg/mL. In addition, the IC50 in data set [2] turned out to be 44 nM. In data set [3], the half-life is 1.1 h.
In the case of `C#C[C@]1(CO)O[C@@H](n2ccc3c(N)nc(Cl)nc32)C[C@@H]1OC(=O)CCCCCCCCCCC` [Example 25, (2R,3S,5R)-5-(4-amino-2-chloro-7H-pyrrolo[2,3-d]pyrimidin-7-yl)-2-ethynyl-2-(hydroxymethyl)tetrahydrofuran-3-yl dodecanoate], the solubility at 24 h in data set [1] turned out to be 2 µg/mL (≈ 4.07 µM). For the same compound, the IC50 in data set [2] was 3.5 nM.
On the same counts, the results for `C#C[C@]1(COCOC(=O)OC(C)C)O[C@@H](n2ccc3c(N)nc(Cl)nc32)C[C@@H]1O` [Example 133] are 341 µg/mL (≈ 803 µM) and 2.7 nM.
On to `C#C[C@]1(COC(=O)OCc2cc[nH]c(=O)c2)O[C@@H](n2ccc3c(N)nc(Cl)nc32)C[C@@H]1OC(=O)OCc1cc[nH]c(=O)c1` [Example 225], for which the solubility at 24 h in data set [1] turned out to be 70 µg/mL (≈ 115 µM). Besides, the IC50 in data set [2] was found to be 13 nM.
Regarding `C#C[C@]1(COC(=O)CCCCCCCCC)O[C@@H](n2ccc3c(N)nc(Cl)nc32)C[C@@H]1OC(=O)CC` [Example 47, ((2R,3S,5R)-5-(4-amino-2-chloro-7H-pyrrolo[2,3-d]pyrimidin-7-yl)-2-ethynyl-3-(propionyloxy)tetrahydrofuran-2-yl)methyl decanoate], the solubility at 24 h in data set [1] was under 1 µg/mL. Further, the IC50 in data set [2] was found to be 34 nM.
Taken in the same sequence, the figures for `C#C[C@]1(COC(=O)CCCCCCC)O[C@@H](n2ccc3c(N)nc(Cl)nc32)C[C@@H]1O` [Example 57, ((2R,3S,5R)-5-(4-amino-2-chloro-7H-pyrrolo[2,3-d]pyrimidin-7-yl)-2-ethynyl-3-hydroxytetrahydrofuran-2-yl)methyl octanoate] were 5 µg/mL (≈ 11.5 µM) and 2.6 nM.
On the same counts, the results for `C#C[C@]1(COC(=O)OCCc2ccccc2)O[C@@H](n2ccc3c(N)nc(Cl)nc32)C[C@@H]1O` [Example 124] are 71 µg/mL (≈ 155 µM) and 3.6 nM.
For the compound `C#C[C@]1(COC(=O)OCc2ccccc2)O[C@@H](n2ccc3c(N)nc(Cl)nc32)C[C@@H]1OC(=O)CCC` [Example 194], in data set [1], the solubility at 24 h came out at 2.3 µg/mL (≈ 4.48 µM). The IC50 in data set [2] came out at 17 nM.
In the case of `C#C[C@]1(COC(=O)OCCCC)O[C@@H](n2ccc3c(N)nc(Cl)nc32)C[C@@H]1OC(=O)OCC` [Example 216], the solubility at 24 h in data set [1] is under 1 µg/mL. In data set [2], the IC50 was 21 nM.
Regarding `C#C[C@]1(COC(=O)CCCCC)O[C@@H](n2ccc3c(N)nc(Cl)nc32)C[C@@H]1OC(=O)CC` [Example 188], the solubility at 24 h in data set [1] stood at 2.4 µg/mL (≈ 5.18 µM). The IC50 in data set [2] was 17 nM.
Take `C#C[C@]1(CO)O[C@@H](n2ccc3c(N)nc(Cl)nc32)C[C@@H]1OC(=O)Cc1ccc(F)cc1` [Example 31, (2R,3S,5R)-5-(4-amino-2-chloro-7H-pyrrolo[2,3-d]pyrimidin-7-yl)-2-ethynyl-2-(hydroxymethyl)tetrahydrofuran-3-yl 2-(4-fluorophenyl)acetate]: the solubility at 24 h in data set [1] came out at 11 µg/mL (≈ 24.7 µM). The IC50 in data set [2] was found to be 4.6 nM.
For `C#C[C@]1(CO)O[C@@H](n2ccc3c(N)nc(Cl)nc32)C[C@@H]1OC(=O)CCCOC(C)=O` [Example 178], the solubility at 24 h in data set [1] came out at 143 µg/mL (≈ 327 µM). Moreover, the IC50 in data set [2] came out at 3.8 nM.
Taken in the same sequence, the figures for `C#C[C@]1(COCOC(=O)C(C)C)O[C@@H](n2ccc3c(N)nc(Cl)nc32)C[C@@H]1O` [Example 54, (((2R,3S,5R)-5-(4-amino-2-chloro-7H-pyrrolo[2,3-d]pyrimidin-7-yl)-2-ethynyl-3-hydroxytetrahydrofuran-2-yl)methoxy)methyl isobutyrate] were 247 µg/mL (≈ 604 µM) and 1.5 nM.
Consider `C#C[C@]1(CO)O[C@@H](n2ccc3c(N)nc(Cl)nc32)C[C@@H]1OC(=O)CCCCCCC` [Example 24, (2R,3S,5R)-5-(4-amino-2-chloro-7H-pyrrolo[2,3-d]pyrimidin-7-yl)-2-ethynyl-2-(hydroxymethyl)tetrahydrofuran-3-yl octanoate], for which the solubility at 24 h in data set [1] was under 1 µg/mL. Further, the IC50 in data set [2] turned out to be 1.7 nM.
`C#C[C@]1(CO)O[C@@H](n2ccc3c(NC(=O)CCCCCCCCC)nc(Cl)nc32)C[C@@H]1O` [Example 197]: in data set [1], the solubility at 24 h is under 1 µg/mL. Also, the IC50 in data set [2] is 29 nM.
Taken in the same sequence, the figures for `C#C[C@]1(COC(=O)OCCCCCC)O[C@@H](n2ccc3c(N)nc(Cl)nc32)C[C@@H]1O` [Example 120] were 108 µg/mL (≈ 247 µM) and 3.8 nM.
`C#C[C@]1(COC(=O)[C@@H](C)c2ccccc2)O[C@@H](n2ccc3c(N)nc(Cl)nc32)C[C@@H]1O` [Example 101]: in data set [1], the solubility at 24 h was found to be 19 µg/mL (≈ 43.1 µM). The IC50 in data set [2] came to 3.4 nM.
On the same counts, the results for `C#C[C@]1(CO)O[C@@H](n2ccc3c(N)nc(Cl)nc32)C[C@@H]1OC(=O)C1CCCCC1` [Example 77] are 14 µg/mL (≈ 33.4 µM) and 5 nM.

Values taken from patent publication US20240287124A1, “PRODRUGS OF 4'-SUBSTITUTED NUCLEOSIDE REVERSE TRANSCRIPTASE INHIBITORS” (Merck Sharp & Dohme LLC, priority 2023, published 2024).
